Values joined by “and” are separate entries in the source; they are usually repeats but may differ in a detail not shown here. Identical values can stand only once. “Also recorded” adds a separate entry of the source. Where a SMILES comes first, the peptide text is derived from it. [ ]: non-standard residue; d: D form. The star is where a group is joined. Paclitaxel(2'-O-succinyl) = CC(=O)O[C@H]1C(=O)[C@@]2(C)[C@H]([C@H](OC(=O)c3ccccc3)[C@]3(O)C[C@H](OC(=O)[C@H](OC(=O)CCC(=O)*)[C@@H](NC(=O)c4ccccc4)c4ccccc4)C(C)=C1C3(C)C)[C@]1(OC(C)=O)CO[C@@H]1C[C@@H]2O; Acetyl(2-naphthyl) = O=C(Cc1ccc2ccccc2c1)*; pY = N[C@@H](Cc1ccc(OP(=O)(O)O)cc1)C(=O)O A value given as a limit tells only on which side of the number the result lay.

Data on four molecules can be found in US9408921B2, “Antineoplastic hydrogels, and enzyme-instructed preparations thereof” (Brandeis University, priority 2009, dated 2016).

One data set can be described thus: solubility. The format is physicochemical.
A short description of data set [1]: stability in water and in gel state. The class given is physicochemical. An excerpt: Nicolaou, K. C.; Guy, R. K.; Pitsinos, E. N.; Wrasidlo, W. Angew. Chem. Intl. Ed.
The next data set deals with HeLa cells. Nature of the data set: cytotoxicity against HeLa cells. An excerpt:
To evaluate the activity of 5a, it was used to treat HeLa cells; paclitaxel (1) was used as the control.

For `CC(=O)O[C@H]1C(=O)[C@@]2(C)[C@H]([C@H](OC(=O)c3ccccc3)[C@]3(O)C[C@H](OC(=O)[C@H](OC(=O)CCC(=O)NCCCC[C@H](NC(=O)[C@H](Cc4ccccc4)NC(=O)[C@H](Cc4ccccc4)NC(=O)Cc4ccc5ccccc5c4)C(=O)N[C@@H](Cc4ccc(OP(=O)(O)O)cc4)C(=O)O)[C@@H](NC(=O)c4ccccc4)c4ccccc4)C(C)=C1C3(C)C)[C@]1(OC(C)=O)CO[C@@H]1C[C@@H]2O` [Compound 5a] ({Acetyl(2-naphthyl)}-FFK(Paclitaxel(2'-O-succinyl))[pY]-OH), the solubility in the data set “solubility” (100 mM phosphate buffered saline (PBS) solution) is 7600 µg/mL and 4260 µM. Moreover, in data set [1] (in water, without a phosphatase), the stability in water entry was “hardly any dephosphorylation over months”. This molecule also gave an IC50 with HeLa cells (HeLa cells, 48 h of incubation) of 9.97 ± 2.05 nM.
For the molecule `NCCCC[C@H](NC(=O)[C@H](Cc1ccccc1)NC(=O)[C@H](Cc1ccccc1)NC(=O)Cc1ccc2ccccc2c1)C(=O)N[C@@H](Cc1ccc(OP(=O)(O)O)cc1)C(=O)O` [Compound 4, NapFFKYp] ({Acetyl(2-naphthyl)}-FFK[pY]-OH), the cytotoxicity in words entry with HeLa cells (HeLa cells) is on record as “essentially biocompatible; also recorded: very limited toxicity”. Also, the IC50 in the data set on HeLa cells (HeLa cells, 48 h, highest concentration tested 500 μM) was over 500000 nM.
For `CC(=O)O[C@H]1C(=O)[C@@]2(C)[C@H]([C@H](OC(=O)c3ccccc3)[C@]3(O)C[C@H](OC(=O)[C@H](OC(=O)CCC(=O)NCCCC[C@H](NC(=O)[C@H](Cc4ccccc4)NC(=O)[C@H](Cc4ccccc4)NC(=O)Cc4ccc5ccccc5c4)C(=O)N[C@@H](Cc4ccc(O)cc4)C(=O)O)[C@@H](NC(=O)c4ccccc4)c4ccccc4)C(C)=C1C3(C)C)[C@]1(OC(C)=O)CO[C@@H]1C[C@@H]2O` [Compound 5b] ({Acetyl(2-naphthyl)}-FFK(Paclitaxel(2'-O-succinyl))Y-OH), in “solubility” (in water), the solubility is 21.6 µg/mL and 12.7 µM. Further, in data set [1] (gel state, mass spectroscopic (MS) analysis), the “stability in gel state” value was “stable in gel state over weeks”. This molecule also returned a 50% inhibitory concentration (IC50) in the data set on HeLa cells (HeLa cells, 48 h of incubation) of 51.4 ± 7.69 nM.
On to `CC(=O)O[C@H]1C(=O)[C@@]2(C)[C@H]([C@H](OC(=O)c3ccccc3)[C@]3(O)C[C@H](OC(=O)[C@H](O)[C@@H](NC(=O)c4ccccc4)c4ccccc4)C(C)=C1C3(C)C)[C@]1(OC(C)=O)CO[C@@H]1C[C@@H]2O` [Compound 1, Paclitaxel, reference compound], for which the IC50 in the data set with HeLa cells (Homo sapiens, HeLa, 48 h) turned out to be 47.3 ± 2.99 nM.
